In patent US11325909B2, “Crystalline 2-amino-2-(hydroxymethyl)propane-1,3-diol salt of 4-(4-(1-isopropyl-7-OXO-1,4,6,7-tetrahydrospiro[indazole-5,4′-piperidine]-1′-carbonyl)-6-methoxypryridin-2-YL)benzoic acid” (Pfizer Inc., priority 2017, dated 2022):
Structures can show the parent of a compound that is named as a salt. Each block holds one molecule with its values, some of them ahead of it.

Assays:
[1] = Pharmacokinetic studies, oral dose, male (fasted) cynomolgus monkeys; type: in vivo
Description: Pharmacokinetic studies were conducted in male (fasted) cynomolgus monkeys (n=2 for each formulation). An oral pill was prepared to compare Form 1 and Form 2. […] The dosage was administered as an oral dose containing 2, 5, or 10 mg/kg, respectively. Serial blood samples were collected at the 0, 0.25, 0.5, 1, 2, 4, 7, and 24-hour time points via the femoral vein by syringe and transferred into K3EDTA vacutainers. Blood samples were then centrifuged, the plasma harvested and stored at −20° C. or −80° C. until analysis.
The appropriate amount of either Form 1 or Form 2 was transferred into a mortar. The corresponding amount of the excipient blend was then geometrically added to the mortar and mixed thoroughly with the respective Form 1 or Form 2 using a pestle. The mixture was transferred to a container, and blended on a Turbula mixer for 5 minutes to provide a blend containing the respective Form 1 or Form 2 mixed with the excipients.
The tablets were compressed to achieve 100 mg tablet weight, with target tablet hardness between 4 and 9 kp at the press speed of 15 tablets per minute.
To prepare a representative batch size of 1 L of 0.5% (w/v) methylcellulose (Methocel® A4M) solution, approximately 0.4 L of deionized water was heated to 80-90° C. after which 5 grams of methylcellulose (Methocel® A4M) was added and mixed thoroughly until the particles were thoroughly wetted. The mixture was then removed from heat. Cold water (0.6 L) was then added, while continuously stirring in the ice bath, until all the methylcellulose particles were dissolved.
The solid powder was triturated (lumps broken) using a pestle. Two mL of 0.5% w/v methylcellulose (Methocel® A4M) was added to the powder drop-wise. The vehicle and free acid were well mixed to form a smooth paste. The remaining of the vehicle was added in small aliquots while mixing until a uniform suspension was obtained. […] Twenty-two microliter of Polysorbate 80 (Tween® 80) was added to the suspension.
The solid powder was triturated (lumps broken) using a pestle. Small amount of 0.5% w/v methylcellulose (Methocel® A4M) was added to the powder to form a smooth paste. The remaining of the vehicle was added in small aliquots while mixing until a uniform suspension was obtained. The suspension was transferred to a container and made up to final volume of 50 mL.

[2] = Hygroscopicity by dynamic vapor sorption; type: physicochemical; settings: at 90% RH/25° C.
Description: Hygroscopicity was measured using a dynamic vapor sorption instrument manufactured by TA Instruments or Surface Measurement Systems. A sample of each Form was exposed to incremental RH levels until either a weight equilibrium (seen as a plateau) of ≤0.001% weight change in 5 minutes was met, or a maximum time of 120 minutes at each RH level. After the shorter of 0.001% weight equilibrium in 5 minutes or 120 minutes, the sample was then exposed to the next RH level. There was an initial drying period where weight may have been lost with Form 1, no drying was utilized for Form 2. The process starts at 10% RH with RH increased to 20% RH and then a 10% RH increase after each interval (0.001% in 5 minutes equilibrium or 120 min, whichever occurred first). At 90% RH, the RH was reversed back to 10% RH using the same equilibration criteria. The hygroscopicity is measured as a function of the percent weight gain measured at 90% RH.

[3] = Thermodynamic stability of crystalline forms versus water activity; type: physicochemical; settings: ambient temperature; 0.2 corresponds to 20% RH
[4] = Thermodynamic solubility (24 hours agitation at RT, filtration, nitrogen detector); type: physicochemical; settings: for Solubility pH 1.2: pH 1.2, 24 hours at RT; for Solubility pH 6.5: pH 6.5, 24 hours at RT; for Solubility pH 7.4: pH 7.4, 24 hours at RT
Description: Four hundred fifty microliters (450 μL) of the desired medium was added to the filter and agitated for 24 hours at RT. After 24 hours, the sample was filtered and the filtrates were injected into a nitrogen detector for quantification.
pH 1.2: Weigh out 1.0 g of NaCl and transfer to a beaker. Add about 450 mL HPLC-grade water to dissolve the NaCl. […] Transfer the solution to a 500 mL volumetric flask and bring to 500 mL with HPLC-grade water.
pH 6.5: Titrate about 250 mL of 50 mM NaPO4 dibasic with about 500 mL of 50 mM NaPO4 monobasic to pH 6.5. The ending total volume is the volume at the point the solution has a pH 6.5 is reached when adding 50 mM NaPO4 monobasic to the 50 mM NaPO4 dibasic.
pH 7.4: Titrate about 200 mL of 50 mM NaPO4 dibasic with about 50 mL of 50 mM NaPO4 monbasic to pH 7.4. The ending total volume is the volume at the point the solution has a pH 7.4 is reached when adding 50 mM NaPO4 monobasic to the 50 mM NaPO4 dibasic.

[5] = Hygroscopicity observed during salt evaluation (mainly through visualization); type: physicochemical
Text: Determining whether a solid would form was just one factor in this evaluation. […] See, e.g., C. Saal, A. Becker, Euro.

[6] = Immediate Release Tablet, 2 mg/kg

AUC/Dose [1, 6]: 5650 ng*h/ml/mpk
hygroscopicity (percent weight gain) [2]: about 1%
water activity at which the form is thermodynamically stable [3]: > 0.2
Molecule: COc1cc(C(=O)N2CCC3(CC2)CC(=O)c2c(cnn2C(C)C)C3)cc(-c2ccc(C(=O)O)cc2)n1 [Form 2]

Solubility pH 1.2 ([4]; listed as Tris (Form 1)): 1320.0 μM
Solubility pH 6.5 ([4]; listed as Tris (Form 1)): 3980.0 μM
Solubility pH 7.4 ([4]; listed as Tris (Form 1)): 4770.0 μM
AUC/Dose [1, 6]: 5750 ng*h/ml/mpk
AUC/Dose ([1]; Suspension, 5 mg/kg): 7240 ng*h/ml/mpk
hygroscopicity (percent weight gain) [2]: about 1%
water activity at which the form is thermodynamically stable [3]: < 0.2
Molecule: COc1cc(C(=O)N2CCC3(CC2)CC(=O)c2c(cnn2C(C)C)C3)cc(-c2ccc(C(=O)O)cc2)n1 [Form 1, 4-(4-(1-isopropyl-7-oxo-1,4,6,7-tetrahydrospiro[indazole-5,4′-piperidine]-1′-carbonyl)-6-methoxypyridin-2-yl)benzoic acid anhydrous tris salt]

hygroscopicity of the isolated solid (observation) [5]: too hygroscopic
Molecule: [K+] [potassium]

hygroscopicity of the isolated solid (observation) [5]: too hygroscopic
Molecule: sodium

The remaining lines, values behind:

Molecule: COc1cc(C(=O)N2CCC3(CC2)CC(=O)c2c(cnn2C(C)C)C3)cc(-c2ccc(C(=O)O)cc2)n1 [Compound 1, 4-(4-(1-isopropyl-7-oxo-1,4,6,7-tetrahydrospiro[indazole-5,4′-piperidine]-1′-carbonyl)-6-methoxypyridin-2-yl)benzoic acid]
Solubility pH 1.2 ([4]; listed as Free acid - batch A): 11.8 (avg, n = 2, μM
Solubility pH 1.2 ([4]; listed as Free acid - batch B): 13.0 (avg, n = 2, μM
Solubility pH 1.2 ([4]; listed as Free acid - batch C): <0.5 μM
Solubility pH 6.5 ([4]; listed as Free acid - batch A): 44.7 (avg, n = 2, μM
Solubility pH 6.5 ([4]; listed as Free acid - batch B): 222.0 (avg, n = 2, μM
Solubility pH 6.5 ([4]; listed as Free acid - batch C): 19.6 μM
Solubility pH 7.4 ([4]; listed as Free acid - batch A): 255.0 (avg, n = 2, μM
Solubility pH 7.4 ([4]; listed as Free acid - batch B): 1700.0 (avg, n = 2, μM
Solubility pH 7.4 ([4]; listed as Free acid - batch C): 194.0 μM
AUC/Dose ([1]; Suspension, 10 mg/kg): 4120 ng*h/ml/mpk

Molecule: O=S(=O)(O)O [sulfuric acid]
hygroscopicity of the isolated solid (observation) [5]: very hygroscopic

Molecule: [Ca] [Calcium]
Solubility pH 1.2 [4]: 13.5 μM
Solubility pH 6.5 [4]: 1500.0 μM
Solubility pH 7.4 [4]: 5050.0 μM
hygroscopicity of the isolated solid (observation) [5]: too hygroscopic
